Experimental data reported in patent US20240083933A1, “DISACCHARIDES FOR TREATING BONE DISEASES” (UNIVERSITE DE PICARDIE JULES VERNE, priority 2020, published 2024).

How the values were obtained:
[1] = test system: bone defects in the skull of rats; experiment: Cranial bone defect model with implanted support; format: in vivo; parameters: key to BMD / BV/TV: =: no difference; N/A: not applicable; *p ≤ 0.05; **p ≤ 0.01; ***p ≤ 0.001
Method: The Sprague-Dawley rats are provided by Janvier Labs (Le Genest-Saint-Isle, France) and housed in the PLATAN animal facility of the UPJV. The rats were maintained under a 12-hour day-night cycle, at a temperature of 22±2° C. and 50% humidity.
In order to assess the osteoinductive capacity of the disaccharide via the acceleration of the phenomenon of bone reconstruction and to determine the concentration of the optimal DP2 molecule, and the nature of the most adapted support under the physiological conditions of the fracture consolidation operation (inflammatory reaction, cellular activity), 2 bone defects were made in the skull of rats.
Three different types of supports were tested and two different concentrations of DP2.
In order to reduce the number of used rats, two bone defects were made per rat; one defect was left blank and was used as an internal control for each rat. Thus, the support-only group is considered the control of the experiment. […] For the support-only condition, the latter is mixed with sterile saline solution.
After being assigned to one of the 12 groups shown above, the rat was anesthetized using IsoVet (isoflurane) in the mask (5% in the induction and 2 to 3% in maintenance dose). After 5 min, a nociception test was performed by pinching the paw or tail of the animal to check the effectiveness of the anesthesia. On the workstation, a shaving and a disinfection with vetedine were then carried out next to the incision.
A local anesthesia was also carried out with 7 mg/kg of 2% lidocaine (20 mg/mL) diluted to 5 mg/ml.
On the workstation, the incision of the skin with a 15 blade cold scalpel along the midline was performed, followed by the detachment of the subcutaneous tissues. Then, the incision along the midline and the lifting and lateral displacement of the periosteum were made. […] Saline solution was used during the milling steps. The implantation of the support, depending on the group, on the left side was made; the right side, without support, was used as a control to assess the effect of the lesion and the natural repair processes without the presence of support. The periosteum was put back in place and sutured with 7/0 skin suture. The skin was also put back in place and closed with 4/0 skin suture.
The rat was injected with buprenorphine at a dose of 0.05 mg/kg subcutaneously as an analgesic. After awakening, the rat was returned to its conventional housing conditions, by putting 1 rat per cage. The animals were supervised daily and animal welfare monitoring was carried out.

MC3T3-E1 cells = experiment: Alkaline phosphatase (ALP) enzymatic activity assay, MC3T3-E1; format: cell-based, mouse; conditions: MC3T3-E1, 13 days post-treatment
From the text: ALP is an enzyme synthesized by osteoblasts. It hydrolyses phosphoric esters which inhibit the mineralization by releasing a hydroxyl group and a phosphate. The osteoblasts produce matrix vesicles, reservoirs of alkaline phosphatases and ions, which, when released into the extracellular medium, would initiate the mineralization of the osteoid tissue by promoting the local concentrations of calcium ions and phosphates. Cells have been seeded in 6-well plates at 63700 cells/well for MC3T3-E1 and at 182000 cells/well for HOb.
After the PBS rinses, 50 μl of ALP Assay Buffer were added to the wells, the bottom of the wells was scraped and then the 50 μl were taken. A centrifugation for 3 minutes at 13000 G was carried out to remove the insoluble material. In a 96-well plate, 10 μl of each sample to be tested are placed with 70 μl of the ALP Assay buffer and 50 μl of the 5 mM pNPP solution. In parallel, the calibration range was prepared by placing, in the same 96-well plate. The reaction was incubated for 60 min at 25° C., shielded from light. The reaction was stopped by adding 20 μl of the Stop Solution. The optical density was measured at 405 nm.
After the ALP enzymatic activity assay, a protein assay was performed in order to normalize the results of the ALP assay depending on the number of proteins. […] The optical density was measured at 565 nm to determine the amount of proteins.

[2] = Bio-oss support + DP2R2 3 mM vs Bio-oss only, D 14
[3] = Bio-oss support + DP2R2 3 mM vs Bio-oss only, D 29
[4] = Bio-oss support + DP2R2 3 mM vs Bio-oss only, D 63
[5] = Bio-oss support + DP2R2 3 mM vs Bio-oss only, D 91
[6] = Bio-oss support + DP2R2 9 mM vs Bio-oss only, D 14
[7] = Bio-oss support + DP2R2 9 mM vs Bio-oss only, D 29
[8] = Bio-oss support + DP2R2 9 mM vs Bio-oss only, D 63
[9] = Bio-oss support + DP2R2 9 mM vs Bio-oss only, D 91
[10] = Collagen support + DP2R2 3 mM vs Collagen only, D 14
[11] = Collagen support + DP2R2 3 mM vs Collagen only, D 29
[12] = Collagen support + DP2R2 3 mM vs Collagen only, D 63
[13] = Collagen support + DP2R2 3 mM vs Collagen only, D 91
[14] = Collagen support + DP2R2 9 mM vs Collagen only, D 14
[15] = Collagen support + DP2R2 9 mM vs Collagen only, D 29
[16] = Collagen support + DP2R2 9 mM vs Collagen only, D 63
[17] = Collagen support + DP2R2 9 mM vs Collagen only, D 91
[18] = MBCP support + DP2R2 3 mM vs MBCP only, D 14
[19] = MBCP support + DP2R2 3 mM vs MBCP only, D 29
[20] = MBCP support + DP2R2 3 mM vs MBCP only, D 63
[21] = MBCP support + DP2R2 3 mM vs MBCP only, D 91
[22] = MBCP support + DP2R2 9 mM vs MBCP only, D 14
[23] = MBCP support + DP2R2 9 mM vs MBCP only, D 29
[24] = MBCP support + DP2R2 9 mM vs MBCP only, D 63
[25] = MBCP support + DP2R2 9 mM vs MBCP only, D 91

SMILES: CCCO[C@H]1OC(CO)[C@@H](O[C@@H]2OC(CO)[C@@H](O)C(O)C2NC(C)=O)C(O)C1OC(C)=O (stereo partly drawn) [DP2, n-propyl, 2-O-acetyl-α-D-Glucopyranoside, 4-O-(2-acetamido-2-deoxy-β-D-glucopyranosyl)]
- BMD [1, 2]: =
- BV/TV [1, 2]: =
- BMD [1, 3]: =
- BV/TV [1, 3]: =
- BMD [1, 4]: =
- BV/TV [1, 4]: =
- BMD [1, 5]: =
- BV/TV [1, 5]: =
- BMD [1, 6]: =
- BV/TV [1, 6]: =
- BMD [1, 7]: =
- BV/TV [1, 7]: =
- BMD [1, 8]: =
- BV/TV [1, 8]: =
- BMD [1, 9]: =
- BV/TV [1, 9]: =
- BMD [1, 10]: ↑*
- BV/TV [1, 10]: =
- BMD [1, 11]: =
- BV/TV [1, 11]: =
- BMD [1, 12]: =
- BV/TV [1, 12]: =
- BMD [1, 13]: =
- BV/TV [1, 13]: =
- BMD [1, 14]: =
- BV/TV [1, 14]: =
- BMD [1, 15]: =
- BV/TV [1, 15]: =
- BMD [1, 16]: =
- BV/TV [1, 16]: =
- BMD [1, 17]: =
- BV/TV [1, 17]: =
- BMD [1, 18]: =
- BV/TV [1, 18]: =
- BMD [1, 19]: ↑*
- BV/TV [1, 19]: =
- BMD [1, 20]: ↑*
- BV/TV [1, 20]: =
- BMD [1, 21]: ↑***
- BV/TV [1, 21]: =
- BMD [1, 22]: =
- BV/TV [1, 22]: =
- BMD [1, 23]: ↑*
- BV/TV [1, 23]: =
- BMD [1, 24]: ↑***
- BV/TV [1, 24]: =
- BMD [1, 25]: ↑*
- BV/TV [1, 25]: =
- bone mineralization ([1]; collagen+DP2 [3 mM], D14): increases the bone mineralization
- in-vivo toxic effect (survival, infection, hematoma, necrosis at defect sites) ([1]; rats, 3 months after implantation): does not have any in-vivo toxic effect
- bone mineralization relative MBCP alone ([1]; the 2 MBCP+DP2 groups (3 mM, 9 mM), from D29 post-surgery): increase the bone mineralization
- ALP enzymatic activity relative to the mineralized medium alone (100%) (MC3T3-E1 cells; 15 μM): 118.907±10.466%
- ALP enzymatic activity relative to the mineralized medium alone (100%) (MC3T3-E1 cells; printed 15 μM (second mention)): 148.833±15.761%
